Laboratory results: ChEMBL document CHEMBL1154960, “Development of improved inhibitors of wall teichoic acid biosynthesis with potent activity against Staphylococcus aureus” (Bioorg Med Chem Lett, 2010)
Values after ≈ are worked out from the molar mass of the structure shown. Active and inactive are the calls of the source. The rule behind the calls is not given here.

How the values were obtained:
[1] = tested on: Staphylococcus aureus; assay: Antibacterial activity against Staphylococcus aureus RN4220 assessed as growth inhibition at 100 uM after 12 hrs by optical density plate reader method; assay type: functional
[2] = tested on: Staphylococcus aureus; assay: Antibacterial activity against tarO deficient Staphylococcus aureus RN4220 assessed as growth inhibition at 100 uM after 12 hrs by optical density plate reader method; assay type: functional; details: RN4220, 12 h, read-out: GI
[3] = tested on: Staphylococcus aureus; assay: Antibacterial activity against Staphylococcus aureus RN4220 after 12 hrs by optical density plate reader method; assay type: functional
[4] = tested on: Staphylococcus aureus; assay: Antibacterial activity against methicillin-resistant Staphylococcus aureus MW2 after 12 hrs by optical density plate reader method; assay type: functional; details: MW2, 12 h
[5] = tested on: Staphylococcus aureus; assay: Antibacterial activity against methicillin-sensitive Staphylococcus aureus RN6390 after 12 hrs by optical density plate reader method; assay type: functional; details: RN6390, 12 h
[6] = tested on: Staphylococcus aureus; assay: Antibacterial activity against methicillin-resistant Staphylococcus aureus COL after 12 hrs by optical density plate reader method; assay type: functional
[7] = tested on: Staphylococcus aureus; assay: Antibacterial activity against methicillin-sensitive Staphylococcus aureus Newman after 12 hrs by optical density plate reader method; assay type: functional
[8] = tested on: Staphylococcus aureus; assay: Antibacterial activity against Staphylococcus aureus RN4220 assessed as cell survival at 100 uM after 12 hrs by optical density plate reader method; assay type: functional; details: RN4220, 12 h
[9] = tested on: Staphylococcus aureus; assay: Antibacterial activity against tarO deficient Staphylococcus aureus RN4220 assessed as cell survival at 100 uM after 12 hrs by optical density plate reader method; assay type: functional; details: RN4220, 12 h
[10] = tested on: Staphylococcus aureus; assay: Bacteriostatic activity against Staphylococcus aureus RN4220 assessed as reduction in CFU at 8 times MIC up to 8 hrs by kill curve analysis; assay type: functional, organism-based
[11] = tested on: Staphylococcus aureus; assay: Antibacterial activity against tarO deficient Staphylococcus aureus RN4220 after 12 hrs by optical density plate reader method; assay type: functional; details: RN4220, 12 h
[12] = tested on: Staphylococcus aureus; assay: Antibacterial activity against Staphylococcus aureus RN4220 after 12 hrs by optical density plate reader method in presence of 50% fetal bovine serum; assay type: functional
[13] = tested on: Mus musculus; assay: Toxicity in CD1 mouse at 75 mg/kg, iv after 24 hrs; assay type: organism-based; design: dose 75 mg/kg, route intravenous; details: in vivo
[14] = tested on: Mus musculus; assay: Toxicity in CD1 mouse at 100 mg/kg, iv; assay type: organism-based; design: dose 100 mg/kg, route intravenous; details: in vivo
[15] = Staphylococcus aureus, RN4220, 12 h, read-out: GI
[16] = Staphylococcus aureus, RN4220, 12 h, read-out: MIC

## CCOCCN(CCOCC)c1nc2c(S(=O)(=O)c3ccc(C)cc3)nnn2c2cc(OC)c(OC)cc12
[1]; [15]
  inhibition of growth at 100 µM: 31%

## CCN(CC)c1nc2c(S(=O)(=O)c3ccccc3)nnn2c2cccc(Cl)c12
[1]; [15]
  inhibition of growth at 100 µM: < 30%
[2]
  inhibition of growth at 100 µM: < 30%

## CCN(CC)c1nc2c(S(=O)(=O)c3ccccc3)nnn2c2cc(OC)ccc12
[1]; [15]
  inhibition of growth at 100 µM: > 31%
[2]
  inhibition of growth at 100 µM: > 31%

## CCCCN(CC)c1nc2c(S(=O)(=O)c3ccc(C)cc3)nnn2c2cc(OC)c(OC)cc12
[3]; [16]
  MIC: 3.1 µM (≈ 1.5 µg/mL)

## COc1cc2c(N3CCc4ccccc4C3)nc3c(S(=O)(=O)c4ccc(C)cc4)nnn3c2cc1OC
[1]; [15]
  inhibition of growth at 100 µM: 31%
[2]
  inhibition of growth at 100 µM: > 70%

## CCN(CC)c1nc2c(S(=O)(=O)c3ccccc3)nnn2c2ccc(Br)cc12
[3]; [16]
  MIC: 12.5 µM (≈ 5.75 µg/mL)

## CCN(CC)c1nc2c(S(=O)(=O)c3ccc(C)cc3)nnn2c2cc(OC)c(OC)cc12
[3]; [16]
  MIC: 2.5 µM (≈ 1.14 µg/mL)
[2]
  inhibition of growth at 100 µM: < 30%

## CCN(CC)c1nc2c(S(=O)(=O)c3ccccc3)nnn2c2cc(OC)c(OC)cc12
[3]; [16]
  MIC: 1.8 µM (≈ 0.795 µg/mL)
[4]
  MIC: 3.1 µM (≈ 1.37 µg/mL)
[5]
  MIC: 3.1 µM (≈ 1.37 µg/mL)
[6]
  MIC: 3.1 µM (≈ 1.37 µg/mL)
[7]
  MIC: 3.1 µM (≈ 1.37 µg/mL)
[2]
  inhibition of growth at 100 µM: < 30%

## CCN(CC)c1nc2c(S(=O)(=O)c3ccccc3)nnn2c2cc(C)ccc12
[1]; [15]
  inhibition of growth at 100 µM: < 30%
[2]
  inhibition of growth at 100 µM: < 30%

## CCN(CC)c1nc2c(S(=O)(=O)c3ccccc3)nnn2c2ccc(F)cc12
[1]; [15]
  inhibition of growth at 100 µM: > 31%
[2]
  inhibition of growth at 100 µM: < 30%

## CCN(CC)c1nc2c(S(=O)(=O)c3ccccc3)nnn2c2c(Cl)cccc12
[1]; [15]
  inhibition of growth at 100 µM: < 30%
[2]
  inhibition of growth at 100 µM: < 30%

## Cn1c(=O)c2c(-c3ccccc3)n3c(c2n(C)c1=O)C(c1ccc([N+](=O)[O-])cc1)Nc1ccccc1-3 (configuration not stated)
[8]
  survival at 100 µM: 49%
[9]
  survival at 100 µM: 73%

## COc1ccc(-c2c3c(=O)n(C)c(=O)n(C)c3c3n2-c2ccccc2NC3c2cc(O)ccc2O)cc1 (configuration not stated)
[8]
  survival at 100 µM: 0%
[9]
  survival at 100 µM: 26%

## CCN(CC)c1nc2c(S(=O)(=O)c3ccccc3)nnn2c2ccc(C)cc12
[3]; [16]
  MIC: 25 µM (≈ 9.89 µg/mL)
[2]
  inhibition of growth at 100 µM: < 30%

## CCN(CC)c1nc2c(S(=O)(=O)c3ccccc3)nnn2c2ccc(Cl)cc12
[3]; [16]
  MIC: 3.6 µM (≈ 1.5 µg/mL)
[4]
  MIC: 6.3 µM (≈ 2.62 µg/mL)
[5]
  MIC: 6.3 µM (≈ 2.62 µg/mL)
[6]
  MIC: 6.3 µM (≈ 2.62 µg/mL)
[7]
  MIC: 12.5 µM (≈ 5.2 µg/mL)
[2]
  inhibition of growth at 100 µM: < 30%
[10]
  Activity: Active

## CCN(CC)c1nc2c(S(=O)(=O)c3ccccc3)nnn2c2cc(Br)ccc12
[1]; [15]
  inhibition of growth at 100 µM: > 31%
[11]
  MIC: 100 µM (≈ 46 µg/mL)

## Cn1c(=O)c2c(-c3ccccc3)n3c(c2n(C)c1=O)C(c1cc(Cl)ccc1O)Nc1ccccc1-3 (configuration not stated)
[8]
  survival at 100 µM: 35%
[9]
  survival at 100 µM: 78%

## CCCN(CCOC)c1nc2c(S(=O)(=O)c3ccc(C)cc3)nnn2c2cc(OC)c(OC)cc12
[1]; [15]
  inhibition of growth at 100 µM: 31%

## CCN(CC)c1nc2c(S(=O)(=O)c3ccc(Cl)cc3)nnn2c2cc(OC)c(OC)cc12
[12]
  fold change (FC): 8
[13]
  Activity: Non-toxic
[3]; [16]
  MIC: 0.3 µM (≈ 0.143 µg/mL)
[4]
  MIC: 0.6 µM (≈ 0.286 µg/mL)
[14]
  Activity: Toxic
[5]
  MIC: 0.3 µM (≈ 0.143 µg/mL)
[6]
  MIC: 0.6 µM (≈ 0.286 µg/mL)
[7]
  MIC: 0.3 µM (≈ 0.143 µg/mL)
[2]
  inhibition of growth at 100 µM: < 30%

## COc1ccccc1C1Nc2ccccc2-n2c(-c3ccccc3)c3c(=O)n(C)c(=O)n(C)c3c21 (configuration not stated)
[8]
  survival at 100 µM: 85%
[9]
  survival at 100 µM: 123%

## Cn1c(=O)c2c(-c3ccccc3)n3c(c2n(C)c1=O)C(c1ccco1)Nc1ccccc1-3 (configuration not stated)
[8]
  survival at 100 µM: 100%
[9]
  survival at 100 µM: 98%

## COc1ccc(O)c(C2Nc3ccccc3-n3c(-c4ccccc4)c4c(=O)n(C)c(=O)n(C)c4c32)c1 (configuration not stated)
[8]
  survival at 100 µM: 20%
[9]
  survival at 100 µM: 40%

## CCN(CC)c1nc2c(S(=O)(=O)c3ccccc3)nnn2c2cc3c(cc12)OCCO3
[1]; [15]
  inhibition of growth at 100 µM: < 30%
[2]
  inhibition of growth at 100 µM: < 30%

## CCN(CC)c1nc2c(S(=O)(=O)c3ccccc3)nnn2c2cc(Cl)ccc12
[1]; [15]
  inhibition of growth at 100 µM: < 30%
[2]
  inhibition of growth at 100 µM: < 30%

## CCN(c1nc2c(S(=O)(=O)c3ccc(C)cc3)nnn2c2cc(OC)c(OC)cc12)C(C)C
[3]; [16]
  MIC: 1.6 µM (≈ 0.751 µg/mL)

## Cn1c(=O)c2c(-c3ccccc3)n3c(c2n(C)c1=O)C(c1cccc([N+](=O)[O-])c1)Nc1ccccc1-3 (configuration not stated)
[8]
  survival at 100 µM: 64%
[9]
  survival at 100 µM: 74%

## COc1ccc(-c2c3c(=O)n(C)c(=O)n(C)c3c3n2-c2ccccc2NC3c2ccco2)cc1 (configuration not stated)
[8]
  survival at 100 µM: 57%
[9]
  survival at 100 µM: 69%

## COc1ccc(C2Nc3ccccc3-n3c(-c4ccccc4)c4c(=O)n(C)c(=O)n(C)c4c32)cc1 (configuration not stated)
[8]
  survival at 100 µM: 37%
[9]
  survival at 100 µM: 81%

## COc1cc2c(N3CCCCC3)nc3c(S(=O)(=O)c4ccc(C)cc4)nnn3c2cc1OC
[1]; [15]
  inhibition of growth at 100 µM: > 31%

## Cc1cc2c(cc1C)-n1c(-c3ccccc3)c3c(=O)n(C)c(=O)n(C)c3c1C(c1ccco1)N2 (configuration not stated)
[8]
  survival at 100 µM: 94%
[9]
  survival at 100 µM: 103%

## CCN(CC)c1nc2c(S(=O)(=O)c3ccccc3)nnn2c2ccc(OC)cc12
[3]
  MIC: 25 µM (≈ 10.3 µg/mL)

## Cn1c(=O)c2c(-c3ccc(Cl)cc3)n3c(c2n(C)c1=O)C(c1ccccc1)Nc1ccccc1-3 (configuration not stated)
[8]
  survival at 100 µM: 65%
[9]
  survival at 100 µM: 74%

## Cn1c(=O)c2c(-c3ccccc3)n3c(c2n(C)c1=O)C(c1ccccc1[N+](=O)[O-])Nc1ccccc1-3 (configuration not stated)
[8]
  survival at 100 µM: 79%
[9]
  survival at 100 µM: 86%

## CCN(CC)c1nc2c(S(=O)(=O)c3ccccc3)nnn2c2cc([N+](=O)[O-])ccc12
[11]
  MIC: 50 µM (≈ 21.3 µg/mL)
[3]; [16]
  MIC: 100 µM (≈ 42.6 µg/mL)

## COc1cc2c(N3CCN(c4ccccc4)CC3)nc3c(S(=O)(=O)c4ccc(C)cc4)nnn3c2cc1OC
[1]; [15]
  inhibition of growth at 100 µM: > 31%
[2]
  inhibition of growth at 100 µM: > 70%

## Cn1c(=O)c2c(-c3ccccc3)n3c(c2n(C)c1=O)C(c1ccc(F)cc1)Nc1ccccc1-3 (configuration not stated)
[8]
  survival at 100 µM: 26%
[9]
  survival at 100 µM: 48%

## CCCN(CCC)c1nc2c(S(=O)(=O)c3ccc(C)cc3)nnn2c2cc(OC)c(OC)cc12
[3]; [16]
  MIC: 6.3 µM (≈ 3.05 µg/mL)

## CCN(CC)c1nc2c(S(=O)(=O)c3ccccc3)nnn2c2ccc([N+](=O)[O-])cc12
[1]
  inhibition of growth at 100 µM: > 31%

## COc1ccc(-c2c3c(=O)n(C)c(=O)n(C)c3c3n2-c2ccccc2NC3c2ccccc2OC)cc1 (configuration not stated)
[8]
  survival at 100 µM: 67%
[9]
  survival at 100 µM: 85%

## CCN(c1nc2c(S(=O)(=O)c3ccc(Cl)cc3)nnn2c2cc(OC)c(OC)cc12)C(C)C
[3]; [16]
  MIC: 2.5 µM (≈ 1.22 µg/mL)
[2]
  inhibition of growth at 100 µM: < 30%
